By IC50 is commonly meant the midpoint of a concentration-inhibition curve.

Here are results for 27 compounds from patent US20240059689A1, “PURINE DERIVATIVES AS ANTICANCER AGENTS” (Tango Therapeutics, Inc., priority 2021, published 2024).

One assay relates to HCC1954. Briefly: Viability assay, BRCA1 WT cell line HCC1954. It counts as cell-based. The conditions noted are these: Homo sapiens, HCC1954, viability, read-out: HCC1954 rel IC50. From the text:
(§1) Table 1 also indicates IC50 values in a viability assay for a non-isogenic pair of BRCA1 mutant (column 5-MDA-MB-436) and BRCA1 WT (column 6—HCC1954) cell lines. These values indicate the effect of treatment with compound on cell survival.

A further assay addresses USP1-UAF1 (Homo sapiens, UniProt O94782). Put plainly: Ubiquitin Rhodamine assay of USP1-UAF1 activity. It counts as biochemical. As to the method:
Certain compounds of the disclosure were assessed for USP1-UAF1 activity in a Ubiquitin Rhodamine assay as described in Biology Example 1.

For a further assay, the system named is MDA-MB-436. Briefly: Viability assay, BRCA1 mutant cell line MDA-MB-436. The conditions noted are these: Homo sapiens, MDA-MB-436, viability, BRCA1 mutant MDA-MB-436; read-out: MDA-MB-436 rel IC50. It counts as cell-based.
Source text: as §1

A further assay relates to monoubiquitinated PCNA. Put plainly: AlphaLISA assay measuring monoubiquitinated PCNA in MDA-MB-436. It counts as cell-based. The note with it: Homo sapiens, MDA-MB-436, monoubiquitinated PCNA, read-out: Alpha Lisa IC50. From the text: Table 1 also indicates IC50 values for exemplary compounds in an AlphaLISA assay measuring monoubiquitinated PCNA in a BRCA1 mutant cell line (MDA-MB-436; column 7).

Chain of USP1-UAF1 (O94782 whole entry): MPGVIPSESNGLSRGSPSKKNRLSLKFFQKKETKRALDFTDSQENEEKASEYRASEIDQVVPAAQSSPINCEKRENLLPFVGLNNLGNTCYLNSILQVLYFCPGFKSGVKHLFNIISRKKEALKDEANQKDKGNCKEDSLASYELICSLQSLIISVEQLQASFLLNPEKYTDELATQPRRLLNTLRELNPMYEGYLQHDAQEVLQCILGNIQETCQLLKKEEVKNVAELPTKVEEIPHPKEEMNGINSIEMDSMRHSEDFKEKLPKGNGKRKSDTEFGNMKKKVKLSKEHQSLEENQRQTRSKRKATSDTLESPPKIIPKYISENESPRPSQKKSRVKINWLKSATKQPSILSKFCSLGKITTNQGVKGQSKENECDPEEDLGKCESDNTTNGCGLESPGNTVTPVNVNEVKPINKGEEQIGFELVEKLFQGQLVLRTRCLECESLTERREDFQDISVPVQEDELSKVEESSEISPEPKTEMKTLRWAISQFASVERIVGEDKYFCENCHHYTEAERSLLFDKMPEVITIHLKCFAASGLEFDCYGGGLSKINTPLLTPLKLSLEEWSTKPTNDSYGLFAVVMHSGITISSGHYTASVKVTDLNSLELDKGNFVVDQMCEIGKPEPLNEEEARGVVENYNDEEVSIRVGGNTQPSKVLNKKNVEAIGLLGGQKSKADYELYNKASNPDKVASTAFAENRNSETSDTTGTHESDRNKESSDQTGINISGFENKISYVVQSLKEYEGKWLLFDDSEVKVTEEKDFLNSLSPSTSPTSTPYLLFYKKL
Chain of USP1-UAF1 (Q8TAF3 whole entry partner): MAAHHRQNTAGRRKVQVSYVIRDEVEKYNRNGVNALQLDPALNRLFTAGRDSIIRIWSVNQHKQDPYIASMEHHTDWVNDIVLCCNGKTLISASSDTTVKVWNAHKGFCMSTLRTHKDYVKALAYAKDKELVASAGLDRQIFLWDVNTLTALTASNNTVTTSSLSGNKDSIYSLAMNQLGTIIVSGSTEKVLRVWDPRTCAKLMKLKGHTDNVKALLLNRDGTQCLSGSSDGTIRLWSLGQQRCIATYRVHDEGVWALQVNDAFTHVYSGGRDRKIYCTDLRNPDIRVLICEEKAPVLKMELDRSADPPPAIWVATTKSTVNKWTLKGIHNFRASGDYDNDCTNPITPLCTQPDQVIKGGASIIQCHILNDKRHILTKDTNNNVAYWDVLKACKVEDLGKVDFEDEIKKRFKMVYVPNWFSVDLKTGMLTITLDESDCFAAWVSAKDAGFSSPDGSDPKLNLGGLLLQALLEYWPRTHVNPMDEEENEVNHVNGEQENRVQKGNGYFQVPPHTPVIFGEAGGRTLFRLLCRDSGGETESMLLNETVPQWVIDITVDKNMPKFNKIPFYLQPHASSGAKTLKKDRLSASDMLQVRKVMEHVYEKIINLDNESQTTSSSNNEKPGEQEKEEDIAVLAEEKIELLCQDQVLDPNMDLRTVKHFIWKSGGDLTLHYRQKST

Regarding `Cn1cc(C(F)(F)F)nc1-c1ccc(Cn2c(=N)n(C)c3cnc(-c4cccnc4OC(F)(F)F)nc32)cc1` [Example T-053, 7-methyl-9-[[4-[I-methyl-4-(trifluoromethyl)imidazol-2-yl]phenyl]methyl]-2-[2-(trifluoromethoxy)-3-pyridyl]purin-8-imine], the IC50 in the assay on HCC1954 is at least 10000 nM; against USP1-UAF1 it was below 30 nM; in the assay on MDA-MB-436 it was below 100 nM; with monoubiquitinated PCNA, 100 to 250 nM.
`CC(C)c1ccccc1-c1ncc2c(n1)n(Cc1ccc(-c3nc(C(F)(F)F)cn3C)cc1)c(=N)n2CC(F)(F)F` [Example T-054]: the IC50 in the assay on HCC1954 is at least 10000 nM; against USP1-UAF1, 30 to 100 nM; in the assay with MDA-MB-436, below 100 nM; in the assay on monoubiquitinated PCNA, below 100 nM.
`CCn1cc(C(F)(F)F)nc1-c1ccc(Cn2c(=N)n(C)c3cnc(-c4cccnc4OC)nc32)cc1` [Example T-057]: the IC50 in the assay with HCC1954 was at least 10000 nM; against USP1-UAF1 it was 100 to 10000 nM; in the assay on MDA-MB-436, 250 to 10000 nM; with monoubiquitinated PCNA, 250 to 10000 nM.
Turning to `CC(C)c1ccccc1-c1ncc2c(n1)n(Cc1ccc(-c3nc(C(F)(F)F)c(Br)n3C)cc1)c(=N)n2C` [Example T-059], the IC50 in the assay with HCC1954 was 250 to 10000 nM; against USP1-UAF1 it was below 30 nM; with MDA-MB-436, below 100 nM; with monoubiquitinated PCNA, below 100 nM.
On to `COc1ncccc1-c1ncc2c(n1)n(Cc1ccc(-c3nc(C(F)(F)F)cn3CC(F)F)cc1)c(=N)n2C` [Example T-060], for which the IC50 is at least 10000 nM with HCC1954, 100 to 10000 nM against USP1-UAF1, at least 10000 nM with MDA-MB-436 and 250 to 10000 nM in the assay with monoubiquitinated PCNA.
As to `COn1cc(C(F)(F)F)nc1-c1ccc(Cn2c(=N)n(C)c3cnc(-c4ccccc4C(C)C)nc32)cc1` [Example T-061], the IC50 is 250 to 10000 nM in the assay with HCC1954, below 30 nM at USP1-UAF1, 100 to 250 nM in the assay with MDA-MB-436 and 100 to 250 nM in the assay with monoubiquitinated PCNA.
As for `CCn1cc(C(F)(F)F)nc1-c1ccc(Cn2c(=N)n(C)c3cnc(-c4ccccc4C(F)(F)F)nc32)cc1` [Example T-063, 9-(4-(1-ethyl-4-(trifluoromethyl)-1H-imidazol-2-yl)benzyl)-7-methyl-2-(2-(trifluoromethyl)phenyl)-7H-purin-8(9H)-imine], the IC50 with HCC1954 was at least 10000 nM; at USP1-UAF1, 30 to 100 nM; in the assay with MDA-MB-436, 100 to 250 nM; with monoubiquitinated PCNA, 100 to 250 nM.
Turning to `Cn1cc(C(F)(F)F)nc1-c1ccc(Cn2c(=N)n(C)c3cnc(-c4cccnc4OCC(C)(C)C)nc32)cc1` [Example T-064], the IC50 with HCC1954 is at least 10000 nM; on USP1-UAF1 it was 100 to 10000 nM; with MDA-MB-436, 250 to 10000 nM; with monoubiquitinated PCNA it was 250 to 10000 nM.
As for `COc1nccc(F)c1-c1ncc2c(n1)n(Cc1ccc(-c3nc(C(F)(F)F)cn3C)cc1)c(=N)n2C` [Example T-065], the IC50 in the assay with HCC1954 was at least 10000 nM; at USP1-UAF1 it was 30 to 100 nM; in the assay with MDA-MB-436, 100 to 250 nM; in the assay on monoubiquitinated PCNA, 100 to 250 nM.
Take `COCCn1cc(C(F)(F)F)nc1-c1ccc(Cn2c(=N)n(C)c3cnc(-c4ccccc4C(F)(F)F)nc32)cc1` [Example T-066]: the IC50 was at least 10000 nM in the assay with HCC1954, 100 to 10000 nM against USP1-UAF1, 250 to 10000 nM in the assay on MDA-MB-436 and 250 to 10000 nM with monoubiquitinated PCNA.
Regarding `Cn1cc(C(F)(F)F)nc1-c1ccc(Cn2c(=N)n(C)c3cnc(-c4c(Cl)cnn4C)nc32)cc1` [Example T-067], the half-maximal inhibitory concentration (IC50) with HCC1954 is at least 10000 nM; against USP1-UAF1, 30 to 100 nM; in the assay with MDA-MB-436, 250 to 10000 nM; in the assay on monoubiquitinated PCNA, 250 to 10000 nM.
For `COc1ncnc(C2CC2)c1-c1ncc2c(n1)n(Cc1ccc(-c3nc(C(F)(F)F)cn3CC(F)F)cc1)c(=N)n2C` [Example T-069], the 50% inhibitory concentration (IC50) in the assay on HCC1954 is at least 10000 nM; against USP1-UAF1, 30 to 100 nM; with MDA-MB-436, 100 to 250 nM; in the assay on monoubiquitinated PCNA it was 100 to 250 nM.
On to `Cc1ccc(-c2ncc3c(n2)n(Cc2ccc(-c4nc(C(F)(F)F)cn4C)cc2)c(=N)n3C)c(C(C)C)c1` [Example T-070, 2-(2-isopropyl-4-methyl-phenyl)-7-methyl-9-[[4-[1-methyl-4-(trifluoromethyl)imidazol-2-yl]phenyl]methyl]purin-8-imine], for which the IC50 was in the range of 250 to 10000 nM with HCC1954, 30 to 100 nM at USP1-UAF1, 250 to 10000 nM in the assay with MDA-MB-436 and 250 to 10000 nM in the assay with monoubiquitinated PCNA.
Turning to `CC(C)c1cc(C#N)ccc1-c1ncc2c(n1)n(Cc1ccc(-c3nc(C(F)(F)F)cn3C)cc1)c(=N)n2C` [Example T-071, 4-[8-imino-7-methyl-9-[[4-[1-methyl-4-(trifluoromethyl)imidazol-2-yl]phenyl]methyl]purin-2-yl]-3-isopropyl-benzonitrile], the IC50 is 250 to 10000 nM with HCC1954, 30 to 100 nM against USP1-UAF1, 100 to 250 nM in the assay on MDA-MB-436 and below 100 nM in the assay on monoubiquitinated PCNA.
The like results for `CC(C)c1ncccc1-c1ncc2c(n1)n(Cc1ccc(-c3nc(C(F)(F)F)cn3C)cc1)c(=N)n2C` [Example T-076, 2-(2-isopropyl-3-pyridyl)-7-methyl-9-[[4-[1-methyl-4-(trifluoromethyl)imidazol-2-yl]phenyl]methyl]purin-8-imine] were, in that order, at least 10000 nM, 30 to 100 nM, 250 to 10000 nM and 100 to 250 nM.
The like results for `COc1ncnc(C2CC2)c1-c1ncc2c(n1)n(Cc1ccc(-n3nc(C(F)(F)F)cc3OC)cc1)c(=N)n2C` [Example T-078] were, in that order, at least 10000 nM, below 30 nM, below 100 nM and below 100 nM.
The like results for `Cn1cc(C(F)(F)F)nc1-c1ccc(Cn2c(=N)n(C)c3cnc(-c4cccnc4OCC(F)(F)F)nc32)cc1` [Example T-079, 7-methyl-9-[[4-[1-methyl-4-(trifluoromethyl)imidazol-2-yl]phenyl]methyl]-2-[2-(2,2,2-trifluoroethoxy)-3-pyridyl]purin-8-imine] were, in that order, at least 10000 nM, 100 to 10000 nM, 250 to 10000 nM and 100 to 250 nM.
For the compound `CC(C)c1ccccc1-c1ncc2c(n1)n(Cc1ccc(-c3nc(C(F)(F)F)cn3C)cc1O)c(=N)n2C` [Example T-081], the IC50 is at least 10000 nM in the assay on HCC1954, below 30 nM against USP1-UAF1, 100 to 250 nM in the assay with MDA-MB-436 and below 100 nM in the assay on monoubiquitinated PCNA.
Taken in the same sequence, the figures for `Cn1cc(C(F)(F)F)nc1-c1ccc(Cn2c(=N)n(C)c3cnc(-c4cccnc4OC(F)F)nc32)cc1` [Example T-082, 2-[2-(difluoromethoxy)-3-pyridyl]-7-methyl-9-[[4-[1-methyl-4-(trifluoromethyl)imidazol-2-yl]phenyl]methyl]purin-8-imine] were at least 10000 nM, below 30 nM, below 100 nM and below 100 nM.
The like results for `CC(C)c1ccccc1-c1nc(C(F)(F)F)c2c(n1)n(Cc1ccc(-c3nc(C(F)(F)F)cn3C)cc1)c(=N)n2C` [Example T-084] were, in that order, 250 to 10000 nM, below 30 nM, 100 to 250 nM and 100 to 250 nM.
Consider `COc1nc(C#N)ccc1-c1ncc2c(n1)n(Cc1ccc(-c3nc(C(F)(F)F)cn3C)cc1)c(=N)n2C` [Example T-085], for which the IC50 with HCC1954 lay in the range of 250 to 10000 nM; against USP1-UAF1 it was 100 to 10000 nM; in the assay on MDA-MB-436, 250 to 10000 nM; in the assay with monoubiquitinated PCNA, 250 to 10000 nM.
`Cn1cc(C(F)(F)F)nc1-c1ccc(Cn2c(=N)n(C)c3cnc(-c4ccccc4C4CC4)nc32)cc1` [Example T-087, 2-(2-cyclopropylphenyl)-7-methyl-9-[[4-[1-methyl-4-(trifluoromethyl)imidazol-2-yl]phenyl]methyl]purin-8-imine]: the IC50 in the assay on HCC1954 is 250 to 10000 nM; at USP1-UAF1, below 30 nM; in the assay with MDA-MB-436, below 100 nM; with monoubiquitinated PCNA, below 100 nM.
Turning to `COc1ncccc1-c1ncc2c(n1)n(Cc1ccc(-c3nc(C(F)(F)F)cn3C)cc1)c(=N)n2C` [Example T-090], the IC50 was at least 10000 nM in the assay on HCC1954, 100 to 10000 nM at USP1-UAF1, 250 to 10000 nM in the assay on MDA-MB-436 and 250 to 10000 nM in the assay on monoubiquitinated PCNA.
With `Cc1cc(Cn2c(=N)n(C)c3cnc(-c4ccccc4C(F)(F)F)nc32)ccc1-c1nc(C(F)(F)F)c[nH]1` [Example T-092], the IC50 with HCC1954 is 250 to 10000 nM; on USP1-UAF1, 30 to 100 nM; in the assay on MDA-MB-436, 250 to 10000 nM; with monoubiquitinated PCNA it was 250 to 10000 nM.
With `COc1ncccc1-c1ncc2c(n1)n(Cc1ccc(-c3nc(C(F)(F)F)cn3CCF)cc1)c(=N)n2C` [Example T-093], the IC50 is at least 10000 nM in the assay on HCC1954, 100 to 10000 nM against USP1-UAF1, 250 to 10000 nM in the assay on MDA-MB-436 and 250 to 10000 nM with monoubiquitinated PCNA.
For the compound `CCOc1cc(C(F)(F)F)nn1-c1ccc(Cn2c(=N)n(C)c3cnc(-c4c(OC)ncnc4C4CC4)nc32)cc1` [Example T-094], the IC50 in the assay on HCC1954 is at least 10000 nM; on USP1-UAF1, below 30 nM; in the assay on MDA-MB-436, below 100 nM; with monoubiquitinated PCNA it was below 100 nM.
In the case of `COc1ncnc(C2CC2)c1-c1ncc2c(n1)n(Cc1ccc(-c3nc(C(F)(F)F)cn3C)cc1)c(=N)n2CC(F)(F)F` [Example T-095, 2-(4-cyclopropyl-6-methoxy-pyrimidin-5-yl)-9-[[4-[1-methyl-4-(trifluoromethyl)imidazol-2-yl]phenyl]methyl]-7-(2,2,2-trifluoroethyl)purin-8-imine], the IC50 in the assay with HCC1954 is at least 10000 nM; against USP1-UAF1, 30 to 100 nM; in the assay with MDA-MB-436, below 100 nM; with monoubiquitinated PCNA, below 100 nM.
